Laboratory results reported in PMC9090415, “Discovery of small molecule inhibitors of Plasmodium falciparum apicoplast DNA polymerase” (Journal of Enzyme Inhibition and Medicinal Chemistry, 2022).

Target: P. falciparum apicoplast DNA polymerase (Pf-apPOL) (Plasmodium falciparum, UniProt Q8ILY1)
Assay: Fluorescence-based high-throughput DNA polymerase assay (molecular beacon), primary screen and dose-response
Assay type: biochemical
Conditions: for DNA Pol: 90 min, 10 µM; for % inhibition apPOL 180' 2.5 / % inhibition apPOL 180' 5 / % inhibition apPOL 180' 10 / % inhibition apPOL 180' 20 / % inhibition apPOL 180' 40 / % inhibition apPOL 180' 80: read at 180'
Method in brief: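 Single-point screening used 10 µM compound with 20 nM polymerase, 20 nM hairpin substrate and 6 µM dNTPs for 90 min at 25 °C. Confirmatory titrations (2.5–80 µM) followed fluorescence at three times, and IC50 was derived from a fit including a cooperativity term n.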

Sequence of P. falciparum apicoplast DNA polymerase (Pf-apPOL) (Q8ILY1 entry or part of it): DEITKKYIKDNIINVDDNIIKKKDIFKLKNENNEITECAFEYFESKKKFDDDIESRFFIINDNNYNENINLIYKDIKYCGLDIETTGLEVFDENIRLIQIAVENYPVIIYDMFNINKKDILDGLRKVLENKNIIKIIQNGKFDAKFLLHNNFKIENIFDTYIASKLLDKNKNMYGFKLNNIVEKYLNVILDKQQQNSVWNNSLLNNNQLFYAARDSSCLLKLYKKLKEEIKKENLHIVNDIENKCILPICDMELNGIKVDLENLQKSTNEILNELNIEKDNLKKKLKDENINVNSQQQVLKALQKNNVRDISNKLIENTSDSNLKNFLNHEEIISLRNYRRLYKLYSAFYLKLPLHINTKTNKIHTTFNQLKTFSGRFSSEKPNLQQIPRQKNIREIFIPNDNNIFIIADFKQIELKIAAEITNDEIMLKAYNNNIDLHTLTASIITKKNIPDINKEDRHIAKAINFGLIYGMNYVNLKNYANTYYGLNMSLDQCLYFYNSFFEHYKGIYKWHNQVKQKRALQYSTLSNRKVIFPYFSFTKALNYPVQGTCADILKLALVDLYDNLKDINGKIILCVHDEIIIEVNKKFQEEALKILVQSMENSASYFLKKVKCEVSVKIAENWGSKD

SMILES: COc1ccc(CNC(=O)Cn2nc3c(c2NC(=O)Cc2cccs2)CSC3)cc1 [Molecule 55, COc1ccc(cc1)CNC(=O)Cn1nc2c(c1NC(=O)Cc1cccs1)CSC2]
- DNA Pol ('DNA Pol' of the 186 hits list (primary screen value)): 42
- DNA Pol (DNA Pol (primary screen value)): 42
- % inhibition Apo pol 10' (DRC-1, concentration 2.5): 7.186%
- % inhibition Apo pol 10' (DRC-1, concentration 5): 13.7887%
- % inhibition Apo pol 10' (DRC-1, concentration 10): 43.1349%
- % inhibition Apo pol 10' (DRC-1, concentration 20): 61.7989%
- % inhibition Apo pol 10' (DRC-1, concentration 40): 74.6193%
- % inhibition Apo pol 10' (DRC-1, concentration 80): 82.9138%
- % inhibition Apol 90' (DRC-1, concentration 2.5): -3.211%
- % inhibition Apol 90' (DRC-1, concentration 5): 0.071%
- % inhibition Apol 90' (DRC-1, concentration 10): 21.9926%
- % inhibition Apol 90' (DRC-1, concentration 20): 39.7839%
- % inhibition Apol 90' (DRC-1, concentration 40): 59.3907%
- % inhibition Apol 90' (DRC-1, concentration 80): 77.3387%
- % inhibition apPOL 180' (DRC-1, concentration 2.5): -10.7492%
- % inhibition apPOL 180' (DRC-1, concentration 5): -8.12%
- % inhibition apPOL 180' (DRC-1, concentration 10): 5.391%
- % inhibition apPOL 180' (DRC-1, concentration 20): 18.5765%
- % inhibition apPOL 180' (DRC-1, concentration 40): 40.1483%
- % inhibition apPOL 180' (DRC-1, concentration 80): 66.9877%
- % inhibition Apo pol 5' (DRC-2, concentration 2.5): -0.186%
- % inhibition Apo pol 5' (DRC-2, concentration 5): -3.35%
- % inhibition Apo pol 5' (DRC-2, concentration 10): 16%
- % inhibition Apo pol 5' (DRC-2, concentration 20): 23%
- % inhibition Apo pol 5' (DRC-2, concentration 40): 32%
- % inhibition Apo pol 5' (DRC-2, concentration 80): 26%
- % inhibition Apol 40' (DRC-2, concentration 2.5): -0.881%
- % inhibition Apol 40' (DRC-2, concentration 5): -4.6%
- % inhibition Apol 40' (DRC-2, concentration 10): 17%
- % inhibition Apol 40' (DRC-2, concentration 20): 23%
- % inhibition Apol 40' (DRC-2, concentration 40): 47%
- % inhibition Apol 40' (DRC-2, concentration 80): 53%
- % inhibition ApPOL 90' (DRC-2, concentration 2.5): -1.87%
- % inhibition ApPOL 90' (DRC-2, concentration 5): -7%
- % inhibition ApPOL 90' (DRC-2, concentration 10): 13%
- % inhibition ApPOL 90' (DRC-2, concentration 20): 19%
- % inhibition ApPOL 90' (DRC-2, concentration 40): 45%
- % inhibition ApPOL 90' (DRC-2, concentration 80): 63%
- % inhibition apPOL 180' (DRC-2, concentration 2.5): -6.63%
- % inhibition apPOL 180' (DRC-2, concentration 5): -14%
- % inhibition apPOL 180' (DRC-2, concentration 10): 1.41%
- % inhibition apPOL 180' (DRC-2, concentration 20): 5%
- % inhibition apPOL 180' (DRC-2, concentration 40): 35%
- % inhibition apPOL 180' (DRC-2, concentration 80): 65%

SMILES: Cc1ccsc1Cn1c(C)ccc1C [Molecule 70, Cc1ccsc1Cn1c(C)ccc1C]
- DNA Pol (186 hits, DNA Pol (screen value), unit not given): 77
- DNA Pol ('DNA Pol' (screen value), unit not given): 77
- % inhibition Apo pol 10' 2.5 (DRC-1, read at 10', concentration 2.5): 0.1737%
- % inhibition Apo pol 10' 5 (DRC-1, read at 10', concentration 5): 5.431%
- % inhibition Apo pol 10' 10 (DRC-1, read at 10', concentration 10): 19.8551%
- % inhibition Apo pol 10' 20 (DRC-1, read at 10', concentration 20): 37.488%
- % inhibition Apo pol 10' 40 (DRC-1, read at 10', concentration 40): 56.0716%
- % inhibition Apo pol 10' 80 (DRC-1, read at 10', concentration 80): 76.6416%
- % inhibition Apol 90' 2.5 (DRC-1, read at 90', concentration 2.5): -5.458%
- % inhibition Apol 90' 5 (DRC-1, read at 90', concentration 5): -2.713%
- % inhibition Apol 90' 10 (DRC-1, read at 90', concentration 10): 8.027%
- % inhibition Apol 90' 20 (DRC-1, read at 90', concentration 20): 21.1278%
- % inhibition Apol 90' 40 (DRC-1, read at 90', concentration 40): 39.127%
- % inhibition Apol 90' 80 (DRC-1, read at 90', concentration 80): 69.1434%
- % inhibition apPOL 180' 2.5 (DRC-1, concentration 2.5): -10.1468%
- % inhibition apPOL 180' 5 (DRC-1, concentration 5): -7.921%
- % inhibition apPOL 180' 10 (DRC-1, concentration 10): -1.934%
- % inhibition apPOL 180' 20 (DRC-1, concentration 20): 6.387%
- % inhibition apPOL 180' 40 (DRC-1, concentration 40): 21.8537%
- % inhibition apPOL 180' 80 (DRC-1, concentration 80): 54.6421%
- % inhibition Apol 40' (DRC-2, concentration 80): 62%
- % inhibition apPOL 180' (DRC-2, concentration 2.5): -6%
- % inhibition apPOL 180' (DRC-2, concentration 5): -6%
- % inhibition apPOL 180' (DRC-2, concentration 80): 62%
- % inhibition Apo pol 5' 2.5 (DRC-2, read at 5', concentration 2.5): -3.3%
- % inhibition Apo pol 5' 5 (DRC-2, read at 5', concentration 5): 5.66%
- % inhibition Apo pol 5' 10 (DRC-2, read at 5', concentration 10): 20%
- % inhibition Apo pol 5' 20 (DRC-2, read at 5', concentration 20): 32%
- % inhibition Apo pol 5' 40 (DRC-2, read at 5', concentration 40): 48%
- % inhibition Apo pol 5' 80 (DRC-2, read at 5', concentration 80): 47%
- % inhibition Apol 40' 2.5 (DRC-2, read at 40', concentration 2.5): -1.81%
- % inhibition Apol 40' 5 (DRC-2, read at 40', concentration 5): 4%
- % inhibition Apol 40' 10 (DRC-2, read at 40', concentration 10): 18%
- % inhibition Apol 40' 20 (DRC-2, read at 40', concentration 20): 33%
- % inhibition Apol 40' 40 (DRC-2, read at 40', concentration 40): 56%
- % inhibition Apol 40' 80 (DRC-2, read at 40', concentration 80): 62%
- % inhibition ApPOL 90' 2.5 (DRC-2, read at 90', concentration 2.5): -3%
- % inhibition ApPOL 90' 5 (DRC-2, read at 90', concentration 5): -0.174%
- % inhibition ApPOL 90' 10 (DRC-2, read at 90', concentration 10): 14%
- % inhibition ApPOL 90' 20 (DRC-2, read at 90', concentration 20): 28%
- % inhibition ApPOL 90' 40 (DRC-2, read at 90', concentration 40): 54%
- % inhibition ApPOL 90' 80 (DRC-2, read at 90', concentration 80): 64%
- % inhibition apPOL 180' 2.5 (DRC-2, concentration 2.5): -6%
- % inhibition apPOL 180' 5 (DRC-2, concentration 5): -6%
- % inhibition apPOL 180' 10 (DRC-2, concentration 10): 5.64%
- % inhibition apPOL 180' 20 (DRC-2, concentration 20): 16%
- % inhibition apPOL 180' 40 (DRC-2, concentration 40): 45%
- % inhibition apPOL 180' 80 (DRC-2, concentration 80): 62%
